Read-outs that look alike come from different tables or passages of the source. Where no end group is shown, it is not given here.
How the values were obtained:
HLA-A*2402 = HLA-A*2402 (Homo sapiens, UniProt P04439, D101N/D140Y/D185E/E176V/E190D/F33S/G103R/G107R/I119L/I121M/I306V/K335N/L105A/L180Q/L300P/N151K/N90K/Q86E/Q94H/R106L/R138H/R89G/T104I/T345S/V100E/W191G/Y123F); format: binding; details: HLA-A24 motif-bearing peptides, Table XXVI
Text: The corresponding peptide sequence are then synthesized and tested for binding to the appropriate allele-specific HLA molecule, HLA-A1 or HLA-24.

HLA-A*0101 = HLA-A*0101 (Homo sapiens, UniProt P04439, A114D/A174V/A182V/D101N/D185E/E176A/E190D/L180R/Q94H/R68K/S129P/T187R/V100A/V91M/W191G); format: binding; details: Table XXV, HLA-A1 motif-bearing peptides

| Molecule | IC50 (HLA-A*2402) | further results |
| --- | --- | --- |
| TYLPTNASL | 316 nM |  |
| CC(C)[C@H](NC(=O)[C@H](CS)NC(=O)[C@H](CCC(N)=O)NC(=O)[C@H](CC(=O)O)NC(=O)[C@H](C)NC(=O)[C@@H](N)CCC(=O)O)C(=O)N[C@@H](C)C(=O)N[C@@H](CS)C(=O)N[C@@H](C)C(=O)N[C@@H](Cc1c[nH]cn1)C(=O)N[C@@H](Cc1ccc(O)cc1)C(=O)O [Her2/neu.580] |  | IC50 (HLA-A*0101): 250 nM |
| CC(C)[C@H](NC(=O)[C@H](CS)NC(=O)[C@@H](NC(=O)[C@H](C)N)[C@@H](C)O)C(=O)N[C@H](C(=O)N[C@@H](C)C(=O)N[C@@H](CS)C(=O)N1CCC[C@H]1C(=O)N[C@@H](Cc1ccc(O)cc1)C(=O)O)[C@@H](C)O [Her2/neu.293.T2] |  | IC50 (HLA-A*0101; read-out: A*[…]): 49 nM |
| RWGLLLAL [RWGLLLAL] | 480 nM |  |

From US20040121946A9, “Inducing cellular immune responses to her2/neu using peptide and nucleic acid compositions” (priority 2002, published 2004)
